Columns and labels:
Hepatitis B virus = assay: Antiviral activity against HBV infected in human HepAD38 cells assessed as reduction in viral DNA levels incubated for 6 days by PCR analysis; type: functional, organism-based; settings: HePAD38, 144 h
[1] = Cytotoxicity in human HepAD38 cells assessed as induction of cell killing; type: cell-based
[2] = Selectivity index, ratio of CC50 for cytotoxicity in human HepAD38 cells assessed as induction of cell killing to EC50 for antiviral activity against HBV infected in human HepAD38 cells assessed as reduction in viral DNA levels incubated for 6 days by PCR analysis; type: toxicity, cell-based; settings: read-out: Ratio CC50/EC50

O=S(=O)(c1cc2c(Nc3cc(F)c(F)c(F)c3)nn(C3CC3)c2cn1)N1CCC(O)CC1
EC50 (Hepatitis B virus): 0.24 µM | CC50 [1]: > 100 µM | selectivity ratio at 144 h [2]: > 417

O=S(=O)(c1cc2c(Nc3ccc(F)c(F)c3)nn(C3CC3)c2cn1)N1CCOCC1
EC50 (Hepatitis B virus): 0.22 µM | CC50 [1]: > 100 µM | selectivity ratio at 144 h [2]: > 454

O=S(=O)(c1ccc2c(c1)c(NCc1ccc(F)cc1)nn2C1CC1)N1CCC(O)CC1
EC50 (Hepatitis B virus): > 10 µM

O=S(=O)(c1cc2c(Nc3ccc(F)c(C(F)F)c3)nn(C3CC3)c2cn1)N1CCOCC1
EC50 (Hepatitis B virus): 0.23 µM | CC50 [1]: > 100 µM | selectivity ratio at 144 h [2]: > 435

O=S(=O)(c1ccc2c(c1)c(Nc1ccc(F)c(F)c1)nn2C1CC1)N1CCC(O)CC1
EC50 (Hepatitis B virus): 0.12 µM | CC50 [1]: 75 µM | selectivity ratio at 144 h [2]: 625

Cn1nc(Nc2ccc(F)c(Cl)c2)c2cc(S(=O)(=O)N3CCC(O)CC3)ccc21
EC50 (Hepatitis B virus): 1.38 µM | CC50 [1]: > 100 µM | selectivity ratio at 144 h [2]: > 72

O=S(=O)(c1ccc2c(c1)c(Nc1ccc(F)cc1)nn2C1CC1)N1CCCC(O)C1 (stereo not drawn)
EC50 (Hepatitis B virus): 0.25 µM | CC50 [1]: 19.1 µM | selectivity ratio at 144 h [2]: 76.2

Cc1cc(Nc2n[nH]c3ccc(S(=O)(=O)N4CCOCC4)cc23)ccc1F
EC50 (Hepatitis B virus): 0.29 µM | CC50 [1]: 50 µM | selectivity ratio at 144 h [2]: 172

O=S(=O)(c1ccc2c(c1)c(Nc1ccccc1)nn2C1CC1)N1CCC(O)CC1
EC50 (Hepatitis B virus): 0.74 µM | CC50 [1]: 32.2 µM | selectivity ratio at 144 h [2]: 44

O=S(=O)(c1ccc2c(c1)c(Nc1ccc(F)c(C(F)F)c1)nn2C1CC1)N1CCOCC1
EC50 (Hepatitis B virus): 0.12 µM | CC50 [1]: 50 µM | selectivity ratio at 144 h [2]: 417

O=S(=O)(c1ccc2c(c1)c(NCc1ccccc1)nn2C1CC1)N1CCC(O)CC1
EC50 (Hepatitis B virus): > 10 µM

CN(c1ccc(F)c(Cl)c1)c1nn(C2CC2)c2ccc(S(=O)(=O)N3CCC(O)CC3)cc12
EC50 (Hepatitis B virus): > 10 µM | CC50 [1]: > 100 µM

Cc1cc(Nc2nn(C(F)F)c3ccc(S(=O)(=O)N4CCOCC4)cc23)ccc1F
EC50 (Hepatitis B virus): > 10 µM | CC50 [1]: > 100 µM

O=S(=O)(c1ccc2c(c1)c(Nc1ccc(F)cc1Cl)nn2C1CC1)N1CCC(O)CC1
EC50 (Hepatitis B virus): 4 µM | CC50 [1]: > 100 µM | selectivity ratio at 144 h [2]: > 25

O=S(=O)(c1cc(F)c2c(c1)c(Nc1cc(F)c(F)c(F)c1)nn2C1CC1)N1CCC(O)CC1
EC50 (Hepatitis B virus): 2 µM | CC50 [1]: > 100 µM | selectivity ratio at 144 h [2]: > 50

O=S(=O)(c1ccc2c(c1)c(Nc1ccc(F)cc1)nn2C1CC1)N1CCOCC1
EC50 (Hepatitis B virus): 0.43 µM | CC50 [1]: > 100 µM | selectivity ratio at 144 h [2]: > 232

O=S(=O)(c1cc2c(Nc3cc(F)c(F)c(F)c3)nn(C3CC3)c2cc1F)N1CCC(O)CC1
EC50 (Hepatitis B virus): 0.13 µM | CC50 [1]: > 100 µM | selectivity ratio at 144 h [2]: > 769

CC(C)n1nc(Nc2ccc(F)cc2)c2cc(S(=O)(=O)N3CCC(O)CC3)ccc21
EC50 (Hepatitis B virus): > 10 µM

O=S(=O)(c1ccc2[nH]nc(Nc3ccc(F)c(Cl)c3)c2c1)N1CCC(O)CC1
EC50 (Hepatitis B virus): 1.28 µM | CC50 [1]: 24 µM | selectivity ratio at 144 h [2]: 18.8

O=S(=O)(c1cc2c(Nc3ccc(F)c(C(F)(F)F)c3)nn(C3CC3)c2cn1)N1CCOCC1
EC50 (Hepatitis B virus): 0.34 µM | CC50 [1]: > 100 µM | selectivity ratio at 144 h [2]: > 294

O=S(=O)(c1ccc2c(c1)c(Nc1ccc(F)cn1)nn2C1CC1)N1CCC(O)CC1
EC50 (Hepatitis B virus): > 10 µM

O=S(=O)(c1ccc2c(c1)c(Nc1ccc(F)c(C3CC3)c1)nn2C1CC1)N1CCC(O)CC1
EC50 (Hepatitis B virus): 0.68 µM | CC50 [1]: 5.86 µM | selectivity ratio at 144 h [2]: 8.6

Cc1cc(F)ccc1Nc1nn(C2CC2)c2ccc(S(=O)(=O)N3CCC(O)CC3)cc12
EC50 (Hepatitis B virus): 1.15 µM | CC50 [1]: > 100 µM | selectivity ratio at 144 h [2]: > 87

O=S(=O)(c1ccc2c(c1)c(NC1CCCC1)nn2C1CC1)N1CCC(O)CC1
EC50 (Hepatitis B virus): > 10 µM | CC50 [1]: > 100 µM

Cc1cc(Nc2nn(C3CC3)c3ccc(S(=O)(=O)N4CCC(O)CC4)cc23)ncc1F
EC50 (Hepatitis B virus): > 10 µM

Cc1cc(Nc2nn(C3CC3)c3ccc(S(=O)(=O)N4CCC(O)CC4)cc23)ccn1
EC50 (Hepatitis B virus): > 20 µM | CC50 [1]: 46.6 µM | selectivity ratio at 144 h [2]: < 23

O=S(=O)(c1ccc2c(c1)c(Nc1ccc(F)cc1)nn2C1CC1)N1CCC2(CC1)OCCO2
EC50 (Hepatitis B virus): 0.25 µM | CC50 [1]: > 100 µM | selectivity ratio at 144 h [2]: > 400

O=S(=O)(c1ccc2c(c1)c(Nc1ccc(F)c(Cl)c1)nn2C1CC1)N1CCC(O)CC1
EC50 (Hepatitis B virus): 0.19 µM | CC50 [1]: 18.3 µM | selectivity ratio at 144 h [2]: 96

O=S(=O)(c1ccc2c(c1)c(Nc1ccc(Cl)cc1)nn2C1CC1)N1CCC(O)CC1
EC50 (Hepatitis B virus): 3.14 µM | CC50 [1]: 6.9 µM | selectivity ratio at 144 h [2]: 2.2

O=S(=O)(c1ccc2c(c1)c(Nc1ccc(F)cc1)nn2C1CC1)N1CCC(CO)CC1
EC50 (Hepatitis B virus): 1.1 µM | CC50 [1]: 24.8 µM | selectivity ratio at 144 h [2]: 23

O=S(=O)(c1ccc2c(c1)c(Nc1ccc(F)c(C(F)(F)F)c1)nn2C1CC1)N1CCOCC1
EC50 (Hepatitis B virus): 0.29 µM | CC50 [1]: 8.42 µM | selectivity ratio at 144 h [2]: 29

Cc1cc(Nc2nn(C3CC3)c3ccc(S(=O)(=O)N4C[C@@H]5C[C@H]4CO5)cc23)ccc1F
EC50 (Hepatitis B virus): 0.045 µM | CC50 [1]: 19 µM | selectivity ratio at 144 h [2]: 422

O=C1CCN(S(=O)(=O)c2ccc3c(c2)c(Nc2ccc(F)cc2)nn3C2CC2)CC1
EC50 (Hepatitis B virus): 0.33 µM | CC50 [1]: 14.2 µM | selectivity ratio at 144 h [2]: 43

Cc1cc(Nc2nn(C3CC3)c3ccc(S(=O)(=O)N4CCC(O)CC4)cc23)ccc1F
EC50 (Hepatitis B virus): 0.032 µM | CC50 [1]: 11 µM | selectivity ratio at 144 h [2]: 343

O=C(O)C1CCN(S(=O)(=O)c2ccc3c(c2)c(Nc2ccc(F)cc2)nn3C2CC2)C1 (stereo not drawn)
EC50 (Hepatitis B virus): > 10 µM | CC50 [1]: > 100 µM

O=S(=O)(c1ccc2c(c1)c(Nc1ccc(F)cc1)nn2C1COC1)N1CCC(O)CC1
EC50 (Hepatitis B virus): > 10 µM

N#Cc1cc(Nc2nn(C3CC3)c3ccc(S(=O)(=O)N4CCC(O)CC4)cc23)ccc1F
EC50 (Hepatitis B virus): > 10 µM

Cc1ccc(Nc2nn(C3CC3)c3ccc(S(=O)(=O)N4CCC(O)CC4)cc23)cc1
EC50 (Hepatitis B virus): 0.22 to 5 µM

O=S(=O)(c1cnc2c(c1)c(Nc1cc(F)c(F)c(F)c1)nn2C1CC1)N1CCC(O)CC1
EC50 (Hepatitis B virus): > 20 µM

Cc1cc(Nc2nn(CC(F)F)c3ccc(S(=O)(=O)N4CCOCC4)cc23)ccc1F
EC50 (Hepatitis B virus): 0.23 µM | CC50 [1]: > 100 µM | selectivity ratio at 144 h [2]: > 435

CCn1nc(Nc2ccc(F)cc2)c2cc(S(=O)(=O)N3CCC(O)CC3)ccc21
EC50 (Hepatitis B virus): 1.26 µM | CC50 [1]: > 100 µM | selectivity ratio at 144 h [2]: > 79

O=S(=O)(c1ccc2c(c(Nc3cc(F)c(F)c(F)c3)nn2C2CC2)c1F)N1CCC(O)CC1
EC50 (Hepatitis B virus): > 20 µM | CC50 [1]: > 100 µM

O=S(=O)(c1ccc2c(c1)c(Nc1ccc(F)cc1)nn2C1CC1)N1CCC(O)C1 (stereo not drawn)
EC50 (Hepatitis B virus): 2.1 µM | CC50 [1]: 60 µM | selectivity ratio at 144 h [2]: 28

O=S(=O)(c1ccc2c(c1)c(Nc1ccc(F)cc1)nn2C1CCC1)N1CCC(O)CC1
EC50 (Hepatitis B virus): 8 µM | CC50 [1]: 10.8 µM | selectivity ratio at 144 h [2]: 1.3

Cc1cc(Nc2nn(C3CC3)c3cc(F)c(S(=O)(=O)N4CCOCC4)cc23)ccc1F
EC50 (Hepatitis B virus): 0.21 µM | CC50 [1]: > 100 µM

O=S(=O)(c1ccc2c(c1)c(Oc1ccc(F)c(Cl)c1)nn2C1CC1)N1CCC(O)CC1
EC50 (Hepatitis B virus): > 10 µM | CC50 [1]: 75 µM | selectivity ratio at 144 h [2]: < 7.5

O=S(=O)(c1ccc2c(c1)c(NC1CCCCC1)nn2C1CC1)N1CCC(O)CC1
EC50 (Hepatitis B virus): > 10 µM | CC50 [1]: 100 µM | selectivity ratio at 144 h [2]: < 10

O=S(=O)(c1ccc2c(c1)c(Nc1ccc(F)c(C(F)(F)F)c1)nn2C1CC1)N1CCC(O)CC1
EC50 (Hepatitis B virus): 6 µM | CC50 [1]: 7.52 µM | selectivity ratio at 144 h [2]: 1.3

Cc1cc(Nc2nn(CC(F)(F)F)c3ccc(S(=O)(=O)N4CCOCC4)cc23)ccc1F
EC50 (Hepatitis B virus): 0.24 µM | CC50 [1]: > 100 µM | selectivity ratio at 144 h [2]: > 417

O=S(=O)(c1ccc2c(c1)c(Nc1ccc(F)c(F)c1)nn2C1CC1)N1CCOCC1
EC50 (Hepatitis B virus): 0.22 µM | CC50 [1]: > 100 µM | selectivity ratio at 144 h [2]: > 454

O=S(=O)(c1cc2c(Nc3ccc(F)c(F)c3)nn(C3CC3)c2cn1)N1CCC(O)CC1
EC50 (Hepatitis B virus): 0.25 µM | CC50 [1]: > 100 µM | selectivity ratio at 144 h [2]: > 400

O=S(=O)(c1ccc2c(n1)c(Nc1cc(F)c(F)c(F)c1)nn2C1CC1)N1CCC(O)CC1
EC50 (Hepatitis B virus): > 5 µM

O=S(=O)(c1ccc2c(c1)c(Nc1ccc(F)cc1)nn2C1CC1)N1CCC(O)CC1
EC50 (Hepatitis B virus): 0.22 µM | CC50 [1]: > 100 µM | selectivity ratio at 144 h [2]: > 455

From ChEMBL document CHEMBL4602735, “Discovery of (1H-Pyrazolo[3,4-c]pyridin-5-yl)sulfonamide Analogues as Hepatitis B Virus Capsid Assembly Modulators by Conformation Constraint” (J Med Chem, 2020)
